In the supplement of paper PMC12370961:

Legend:
Experiment in all cases: differential drug sensitivity score (dDSS) relative to sarcoma reference cohort mean DSS (DSS units (0-100 scale difference)); higher = more selective sensitivity than reference sarcomas
Details in all cases: exposure time: 72 h; concentration range: 10-10000 nM
[1] = test system: CDS-ZH001 (patient-derived CIC-DUX4 sarcoma tumoroid)
Procedure: (§1)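 Drug response profiling of patient-derived Ewing sarcoma and CIC::DUX4 sarcoma tumoroid models (or cells tested directly after isolation from the tumor, 'direct'). The DSS is the normalised AUC (0-100); dDSS is the sample DSS minus the mean DSS of a 34-sarcoma reference cohort profiled in the same lab.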

[2] = test system: ES-ZH007 (patient-derived Ewing sarcoma tumoroid)
Procedure: as §1

[3] = test system: ES-ZH004 (patient-derived Ewing sarcoma tumoroid)
Procedure: as §1

[4] = test system: CDS-ZH001-2 (patient-derived CIC-DUX4 sarcoma tumoroid)
Procedure: as §1

[5] = test system: ES-ZH016 (patient-derived Ewing sarcoma tumoroid)
Procedure: as §1

[6] = test system: ES-ZH002 (patient-derived Ewing sarcoma tumoroid)
Procedure: as §1

[7] = test system: CDS-ZH002 (patient-derived CIC-DUX4 sarcoma tumoroid)
Procedure: as §1

[8] = test system: ES-ZH016 direct (Ewing sarcoma cells right after isolation)
Procedure: as §1

[9] = test system: CDS-ZH003 (patient-derived CIC-DUX4 sarcoma tumoroid)
Procedure: as §1

[10] = test system: ES-ZH008 (patient-derived Ewing sarcoma tumoroid)
Procedure: as §1

[11] = test system: ES-ZH001 (patient-derived Ewing sarcoma tumoroid)
Procedure: as §1

[12] = test system: CDS-ZH002 direct (CIC-DUX4 sarcoma cells right after isolation)
Procedure: as §1

[13] = test system: ES-ZH009 (patient-derived Ewing sarcoma tumoroid)
Procedure: as §1

| Structure (SMILES) | differential drug sensitivity score [1] | differential drug sensitivity score [2] | differential drug sensitivity score [3] | differential drug sensitivity score [4] | differential drug sensitivity score [5] | differential drug sensitivity score [6] | differential drug sensitivity score [7] | differential drug sensitivity score [8] | differential drug sensitivity score [9] | differential drug sensitivity score [10] | differential drug sensitivity score [11] | differential drug sensitivity score [12] | differential drug sensitivity score [13] |
| --- | --- | --- | --- | --- | --- | --- | --- | --- | --- | --- | --- | --- | --- |
| O=c1cc(N2CCOCC2)oc2c(-c3cccc4c3sc3ccccc34)cccc12 [NU7441] | -4.3 | -4.3 | -1.9 | 1.9 | -3.9 | 8.5 | -4 | 1.1 | -4.3 | -0.8 | 0 | 1.5 | 2.9 |
| c1cn2cc(-c3ccc4cn[nH]c4c3)nc(Nc3ccc(N4CCOCC4)cc3)c2n1 [Entospletinib] | -2.1 | -2.1 | -2.1 | 10.6 | -2.1 | -2.1 | 13.4 | 13.1 | 0 | -2.1 | -2.1 | -1.8 | -2.1 |
| COc1cc(C(=O)O)ccc1NC(=O)[C@@H]1N[C@@H](CC(C)(C)C)[C@](C#N)(c2ccc(Cl)cc2F)[C@H]1c1cccc(Cl)c1F [Idasanutlin] | 4 | -13.6 | -13.6 | 8.5 | 6.4 | 23 | 1.9 | 15.1 | 12 | 19.1 | -13.6 | 10 | -13.6 |
| CCc1cnn2c(NCc3ccc[n+]([O-])c3)cc(N3CCCC[C@H]3CCO)nc12 [Dinaciclib] | 14 | 9.6 | 9.8 | 11.5 | 12.2 | 11.7 | 12 | 11.6 | 14 | 6.6 | 9.8 | 12.8 | 13.8 |
| Cc1ccc(C(=O)Nc2cccc(C(F)(F)F)c2)cc1Nc1nc(-c2cccnc2)nc2c1cnn2C [BHG712] | -1.6 | -1.6 | 0.6 | -1.6 | -1.6 | 3.8 | -1.6 | -1.6 | -1.6 | 7.1 | -1.1 | -1.6 | -1.6 |
| CN(Cc1cnc2nc(N)nc(N)c2n1)c1ccc(C(=O)N[C@@H](CCC(=O)O)C(=O)O)cc1 [Methotrexate] | 0 | -3.6 | -9.9 | -10.9 | 4.4 | -0.6 | -4.9 | -5.4 | -14 | -6.2 | 11.6 | -10.4 | 21.6 |
| C[C@@H]1CCN(C(=O)CC#N)C[C@@H]1N(C)c1ncnc2[nH]ccc12 [Tofacitinib] | -1.3 | -1 | 0.8 | -1.3 | -1.3 | 6.4 | -1.3 | -1.3 | -3.7 | 4.8 | 5.4 | 0.3 | -0.3 |
| COc1cc2nccc(Oc3ccc(NC(=O)NC4CC4)c(Cl)c3)c2cc1C(N)=O [Lenvatinib] | -2.4 | -1.2 | 0.5 | -2.4 | -2.4 | 5.8 | -2.4 | -2.4 | -2.4 | 5 | 3.9 | -2.4 | -2.4 |
| Oc1nc(-c2ccc(C(F)(F)F)cc2)nc2c1CSCC2 [XAV-939] | -2.2 | -1.4 | -2.2 | 3.9 | 2.7 | -1.2 | 1.6 | 3.7 | 7.7 | -2.2 | -2.2 | 4.3 | -0.6 |
| C[C@]1(c2nc3c(C(N)=O)cccc3[nH]2)CCCN1 [Veliparib] | -1.3 | 1.4 | 5.1 | -1.2 | 1.2 | 8.8 | -1.3 | 5.6 | -0.6 | 5.8 | 4.9 | -1.3 | -1.3 |
| CO[C@H]1C[C@@H]2CC[C@@H](C)[C@@](O)(O2)C(=O)C(=O)N2CCCC[C@H]2C(=O)O[C@H]([C@H](C)C[C@@H]2CC[C@@H](O)[C@H](OC)C2)CC(=O)[C@H](C)/C=C(\C)[C@@H](O)[C@@H](OC)C(=O)[C@H](C)C[C@H](C)/C=C/C=C/C=C/1C [Sirolimus] | -10.4 | 7.2 | 14.2 | -0.4 | -0.6 | 17.8 | -10.4 | -8.7 | -6.7 | 6.7 | 5.7 | -2.2 | 2.7 |
| C#Cc1cccc(Nc2ncnc3cc(OCCOC)c(OCCOC)cc23)c1 [Erlotinib] | -1.1 | -1.1 | -1.1 | -1.1 | -1.1 | -1.1 | -1.1 | -1.1 | -1.1 | -1.1 | -1.1 | -1.1 | -1.1 |
| Nc1nc(Cl)nc2c1ncn2[C@@H]1O[C@H](CO)[C@@H](O)[C@@H]1F [Clofarabine] | -12 | 19 | 4.8 | -1.8 | 15.7 | 20.2 | -4.3 | 8.4 | -4.8 | 3.6 | 17.7 | -4.3 | 3.9 |
| C[C@@H]1COCCN1c1cc(C2([S@](C)(=N)=O)CC2)nc(-c2cc[nH]c3nccc2-3)n1 [Ceralasertib] | 0 | 3 | 5.7 | 0.7 | 4.5 | 12 | -0.4 | 13.8 | -4.4 | 9.7 | 5.9 | -2.5 | 2.1 |
| C[C@@H]1CN(C(=O)c2ccc(NC(=O)c3cc(O[C@H](C)c4c(Cl)ccc(F)c4Cl)c(N)nn3)cc2)C[C@H](C)N1 [Ensartinib] | 5 | 4.2 | 4.3 | 5.2 | 3.9 | 15.2 | -0.8 | 3.7 | -1.2 | 13.9 | 4.7 | -1.9 | -2.1 |
| COc1cc([C@@H]2c3cc4c(cc3[C@@H](O[C@@H]3O[C@@H]5CO[C@@H](C)O[C@H]5[C@H](O)[C@H]3O)[C@H]3COC(=O)[C@H]23)OCO4)cc(OC)c1O [Etoposide] | -1.6 | 6.1 | 11.7 | 3.8 | 8.7 | 25.5 | -4.3 | 7.2 | -6.8 | 13.6 | 10 | -7.3 | 8.6 |
| COCC[n+]1c2c(n(Cc3cnccn3)c1C)C(=O)c1ccccc1C2=O [YM155] | -2 | 10.1 | 9.9 | 2.5 | 10.2 | 9.6 | -4.4 | 2.3 | 9.6 | 6.8 | 5.7 | -0.4 | 9.3 |
| CNC(=O)c1cc(Oc2ccc(NC(=O)Nc3ccc(Cl)c(C(F)(F)F)c3)c(F)c2)ccn1 [Regorafenib] | -2 | -2 | 0.8 | -2 | -2 | -1.1 | -2 | -2 | 2.7 | -2 | -2 | -0.6 | -0.4 |
| Nc1cccc2c1CN(C1CCC(=O)NC1=O)C2=O (configuration not stated) [Lenalidomide] | -1.2 | -1.2 | 7.7 | -1.2 | -1.2 | 1.8 | -1.2 | -1.2 | -1.2 | 7.4 | 0.4 | -1.2 | -1.2 |
| O=C(NCC1CCOCC1)c1cnc(Nc2ccc(Cl)cc2Cl)nc1C(F)(F)F | -0.5 | -0.5 | -0.5 | -0.5 | -0.5 | -0.5 | -0.5 | -0.5 | -0.5 | -0.5 | -0.5 | -0.5 | -0.5 |
| CCC1=C[C@@H]2CN(C1)Cc1c([nH]c3ccccc13)[C@@](C(=O)OC)(c1cc3c(cc1OC)N(C)[C@H]1[C@@](O)(C(=O)OC)[C@H](OC(C)=O)[C@]4(CC)C=CCN5CC[C@]31[C@@H]54)C2 [Vinorelbine] | 8.7 | 15.8 | 15.4 | 9.1 | 20.4 | 22.8 | 6.9 | 12.2 | 0.2 | 14.7 | 23.7 | 4.3 | 24.7 |
| Cc1nc(NC(=O)N2CCC[C@H]2C(N)=O)sc1-c1ccnc(C(C)(C)C(F)(F)F)c1 [Alpelisib] | 2.9 | -1.9 | 0.8 | 4.9 | 1 | 11 | -3 | 0.9 | 0.2 | 11 | -3.7 | -2 | 2.5 |
| CCn1c(-c2nonc2N)nc2c(C#CC(C)(C)O)ncc(OC[C@H]3CCCNC3)c21 | 5.1 | 4.4 | 10.8 | -9.5 | 1.1 | 13 | -9.5 | -1 | -9.5 | 15.5 | 0.5 | -3.1 | 5.5 |
| CN1CC[C@@H](NC(=O)Nc2ccc(C#N)cc2)C[C@@H]1c1nc2ccccc2[nH]1 [Glasdegib] | -0.8 | -0.8 | -0.8 | -0.8 | -0.8 | 1.3 | -0.8 | -0.8 | 2.5 | -0.8 | -0.8 | -0.8 | -0.8 |
| NC(=O)/C(=C/n1cnc(-c2cc(C(F)(F)F)cc(C(F)(F)F)c2)n1)c1cncnc1 [Eltanexor] | 0.5 | 0.4 | 14 | 8 | -5.7 | 5 | -5.7 | 22 | -13.9 | 16.8 | -3.8 | -5.9 | -14.4 |
| Cc1ccc(F)c(NC(=O)Nc2ccc(-c3cccc4[nH]nc(N)c34)cc2)c1 [Linifanib] | 0.8 | -1.4 | -1.3 | -0.9 | 0.1 | 2.4 | -1.4 | 0.7 | 0.8 | -0.4 | 3.8 | 1.4 | 2.3 |
| O=C(NOC[C@H](O)CO)c1ccc(F)c(F)c1Nc1ccc(I)cc1F [Mirdametinib] | -3 | -3 | -3 | -3 | -3 | -3 | -3 | -3 | -3 | -1.9 | -3 | -2.9 | -3 |
| O=C(/C=C\n1cnc(-c2cc(C(F)(F)F)cc(C(F)(F)F)c2)n1)NNc1cnccn1 [Selinexor] | -1.3 | 3.2 | 13.5 | 1.3 | -2.7 | 6.2 | -5.5 | 2.2 | -0.6 | 16.7 | -0.6 | -3.6 | -11.6 |
| Nc1cc(C(F)(F)F)c(-c2cc(N3CCOCC3)nc(N3CCOCC3)n2)cn1 [Buparlisib] | 3.3 | -0.1 | -2.2 | 2.9 | -0.6 | 7.6 | -2.2 | 0.6 | 6.9 | 4.6 | 1.5 | -2.5 | 2.5 |
